According to paper PMC11467737, “Osteocalcin binds to a GPRC6A Venus fly trap allosteric site to positively modulate GPRC6A signaling” (FASEB BioAdvances, 2024):
Blank lines part the entries; values can stand above or below the substance they belong to. Bridge positions count the residues as written; N and C are the ends. Ends that are not written are not given here.

Assays:
[1] = tested on: GPRC6A isoforms 1, 2 and 3; assay: GPRC6A signaling in GPRC6A isoforms (read-out not given); type: cell-based, human
Procedure: (§1) All culture reagents were from Invitrogen (Waltham, MA, USA). Human embryonic kidney HEK‐293 cells were obtained from American Type Culture Collection and cultured in DMEM medium supplemented with 10% fetal bovine serum and 1% Penicillin/Streptomycin (P/S). Briefly, HEK‐293 cells transfected with/without human GPRC6A isoforms cDNA plasmids were starved by overnight incubation in serum‐free DMEM/F12 containing 0.1% bovine serum albumin (BSA) and stimulated with various ligands at different doses. ERK activation was assessed 20 min after treatment by using ERK1/2 (phospho‐T203/Y204) ELISA Kit (Invitrogen; Waltham, MA, USA) corrected for the amount of total ERK using ERK1/2 (Total) ELISA Kit (Invitrogen; Waltham, MA, USA) to measure ERK levels.
HEK‐293 transfected with human GPRC6A isoform cDNA plasmids cells (10^5 cells/well)[30] were cultured in 24‐well plates in DMEM supplemented with 10% fetal bovine serum and 1% penicillin/streptomycin (100 U/mL of penicillin and 100 μg/mL of streptomycin) for 48 h followed by 4 h incubation in DMEM/F12 containing 0.1% BSA and 0.5 mM IBMX to achieve quiescence and preventing cAMP degradation. […] Then, the reaction was stopped, and the cells lysed with 0.5 mL 0.1 N HCl. cAMP levels were measured by using Cyclic AMP EIA kit (Cayman Chemical; Ann Arbor, MA, USA) following the manufacture's protocol.

human GPRC6A isoform 2 = biological target: T1, human GPRC6A isoform 2 (Homo sapiens, UniProt Q5T6X5); assay: cAMP accumulation in HEK-293 cells transfected with human GPRC6A isoform 2; type: cell-based; settings: isoform 2; Ocn 1.73-26.0 nM; 1 mM calcium; 40 min; Figure 2C
T1 construct: expressed in transfected cells; host or cells: HEK-293
T1 sequence (Q5T6X5 19-751 isoform Q5T6X5-2 limits assumed): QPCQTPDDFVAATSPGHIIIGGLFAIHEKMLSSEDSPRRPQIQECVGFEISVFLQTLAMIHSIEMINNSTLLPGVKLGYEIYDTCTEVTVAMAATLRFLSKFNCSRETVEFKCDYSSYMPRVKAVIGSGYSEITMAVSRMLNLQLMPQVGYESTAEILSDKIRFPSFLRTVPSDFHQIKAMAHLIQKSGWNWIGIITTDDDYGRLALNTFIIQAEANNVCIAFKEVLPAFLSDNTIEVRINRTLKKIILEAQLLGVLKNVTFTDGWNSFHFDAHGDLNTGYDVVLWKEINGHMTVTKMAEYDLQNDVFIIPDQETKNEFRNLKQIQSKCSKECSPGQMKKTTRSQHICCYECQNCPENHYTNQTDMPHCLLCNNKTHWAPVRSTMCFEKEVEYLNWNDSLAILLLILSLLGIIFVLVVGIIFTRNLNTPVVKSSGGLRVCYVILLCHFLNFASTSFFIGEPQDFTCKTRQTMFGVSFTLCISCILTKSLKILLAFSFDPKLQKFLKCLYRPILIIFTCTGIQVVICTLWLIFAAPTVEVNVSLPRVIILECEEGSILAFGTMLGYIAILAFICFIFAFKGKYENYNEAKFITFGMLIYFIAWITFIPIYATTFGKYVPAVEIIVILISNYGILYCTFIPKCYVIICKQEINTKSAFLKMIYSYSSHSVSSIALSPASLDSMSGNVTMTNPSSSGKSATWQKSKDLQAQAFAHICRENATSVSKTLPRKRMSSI
Procedure: HEK‐293 transfected with human GPRC6A isoform cDNA plasmids cells (10^5 cells/well)[30] were cultured in 24‐well plates in DMEM supplemented with 10% fetal bovine serum and 1% penicillin/streptomycin (100 U/mL of penicillin and 100 μg/mL of streptomycin) for 48 h followed by 4 h incubation in DMEM/F12 containing 0.1% BSA and 0.5 mM IBMX to achieve quiescence and preventing cAMP degradation. Quiescent cells were treated with vehicle control, various ligands at concentration as indicated for 40 min at 37°C. Then, the reaction was stopped, and the cells lysed with 0.5 mL 0.1 N HCl. cAMP levels were measured by using Cyclic AMP EIA kit (Cayman Chemical; Ann Arbor, MA, USA) following the manufacture's protocol.

human GPRC6A isoform 3 = biological target: T2, human GPRC6A isoform 3 (Homo sapiens, UniProt Q5T6X5); assay: ERK activation (ELISA) in HEK-293 cells transfected with human GPRC6A isoform 3; type: cell-based; settings: Ocn 1.73-26.0 nM, 1 mM calcium, 15 min, Figure 2B
T2 construct: expressed in transfected cells; host or cells: HEK-293
T2 sequence (Q5T6X5 19-855 isoform Q5T6X5-3 limits assumed): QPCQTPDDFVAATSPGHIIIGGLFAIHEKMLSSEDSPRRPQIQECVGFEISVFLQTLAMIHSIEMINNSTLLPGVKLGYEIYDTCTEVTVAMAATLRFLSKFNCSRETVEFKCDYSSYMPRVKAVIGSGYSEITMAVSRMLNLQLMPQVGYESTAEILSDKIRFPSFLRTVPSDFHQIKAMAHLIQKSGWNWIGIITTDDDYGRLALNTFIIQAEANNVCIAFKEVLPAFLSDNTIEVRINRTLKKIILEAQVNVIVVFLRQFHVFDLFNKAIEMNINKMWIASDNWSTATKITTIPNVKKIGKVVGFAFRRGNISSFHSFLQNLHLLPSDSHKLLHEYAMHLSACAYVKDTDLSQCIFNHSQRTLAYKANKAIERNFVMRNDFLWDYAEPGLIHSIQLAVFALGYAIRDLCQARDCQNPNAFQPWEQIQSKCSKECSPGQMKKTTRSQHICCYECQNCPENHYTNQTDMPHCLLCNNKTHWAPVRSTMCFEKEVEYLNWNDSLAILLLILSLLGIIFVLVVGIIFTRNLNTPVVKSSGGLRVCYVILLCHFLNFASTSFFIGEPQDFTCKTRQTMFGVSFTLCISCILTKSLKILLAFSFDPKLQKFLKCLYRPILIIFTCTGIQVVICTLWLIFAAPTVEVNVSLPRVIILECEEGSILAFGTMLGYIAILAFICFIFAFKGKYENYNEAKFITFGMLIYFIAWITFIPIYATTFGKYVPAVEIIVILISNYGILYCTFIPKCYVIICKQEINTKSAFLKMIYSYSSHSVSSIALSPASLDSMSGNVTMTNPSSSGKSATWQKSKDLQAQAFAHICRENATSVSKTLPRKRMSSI
Procedure: as §1, with “ERK activation was assessed 20 min after treatment by using ERK1/2 (phospho‐T203/Y204) ELISA Kit (Invitrogen; Waltham, MA, USA) corrected for the amount of total ERK using ERK1/2 (Total) ELISA Kit (Invitrogen; Waltham, MA, USA) to measure ERK levels.” left out

Substance: REVCELNPDC (disulfide 4-10 (inferred)) [Ocn 20–29, synthesized human Ocn decapeptide fragment located in the middle of the protein]
- Response of GPRC6A isoforms 2 and 3 ([1]; isoforms 2 and 3): diminished responses

Substance: RFYGPV [Ocn 44–49, synthesized human Ocn C‐terminal hexapeptide]
- Activation of GPRC6A signaling in GPRC6A isoforms ([1]; all isoforms, including isoforms 2 and 3 with deletions in the VFT): activated GPRC6A signaling in all GPRC6A isoforms

- Ocn-induced cAMP accumulation, dose response (human GPRC6A isoform 2): complete loss of cAMP activation
Substance: osteocalcin (YLYQWLGAPVPYPDPLEPRREVCELNPDCDELADHIGFQEAYRRFYGPV; not fully specified; ends and bridges not checked; UniProt P02818 52-100, looked up) [Ocn 1–49, full human Ocn (49 aa) synthesized by BioMatik; methods also describe decarboxylated Ocn purified from bovine tibial bone, reference compound]
- Ocn-induced ERK activation, dose response (human GPRC6A isoform 3): attenuation of Ocn‐induced ERK stimulation
